Source: patent US20230365537A1, “POLO LIKE KINASE 4 INHIBITORS” (ORIC Pharmaceuticals, Inc., priority 2021, published 2023)

Columns and labels:
[1] = target: human recombinant Aurora B (Homo sapiens (Human), UniProt Q96GD4); assay: Aurora B Kinase Biochemical Assay (ADP-Glo); conditions: ratio of Aurora B IC50 to PLK4 IC50 (selectivity)
Description: Activity of human recombinant Aurora B (ThermoFisher, cat #PR9210B) was measured by quantification of adenosine diphosphate (ADP) using the ADP-Glo Kinase Assay Kit (Promega, cat #V9102). […] 5 µL of 20 nM Aurora B in assay buffer (50 mM HEPES, pH 7.5, 0.01% Brij-35, 0.01% BSA, 10 mM MgCl2, 1 mM EGTA, 1 mM DTT) was added to the plates. Test compounds and Aurora B were incubated for 15 minutes at room temperature (RT). […] Reactions were stopped and the remaining ATP depleted by adding 10uL of ADP-Glo reagent (Promega, cat#V912B) and incubating for 40 minutes at RT. The simultaneous conversion of the remaining ADP to ATP and measurement of the newly synthesized ATP was achieved by addition of 20 µL Kinase Detection reagent (Promega, cat #V914B), incubation for 30 min at RT, and luminescence detection using the EnVision plate reader (PerkinElmer). […] The IC50 values reported in Table 2 were determined using four parameter non-linear regression curve fit.

[2] = target: human recombinant PLK4 (Homo sapiens (Human), UniProt O00444); assay: PLK4 Biochemical Assay (ADP-Glo); conditions: 0.5 nM PLK4, 8.0 µM ATP, 4.7 µM MBP, 6 hours at RT
Description: Activity of human recombinant PLK4 (ThermoFisher, cat #PV6396) was measured by quantification of adenosine diphosphate (ADP) using the ADP-Glo Kinase Assay Kit (Promega, cat #V9102). […] 5 µL of 1.0 nM PLK4 protein in assay buffer (50 mM HEPES, pH 7.5, 0.01% Brij-35, 0.01% BSA, 10 mM MgCl2, 1 mM EGTA, 1 mM DTT) was added to the plates. Test compounds and PLK4 were incubated for 15 minutes at room temperature (RT). […] Reactions were stopped and the remaining ATP depleted by adding 10 µL of ADP-Glo reagent (Promega, cat#V912B) and incubating for 40 minutes at RT. The simultaneous conversion of the remaining ADP to ATP and measurement of the newly synthesized ATP was achieved by addition of 20 µL Kinase Detection reagent (Promega, cat #V914B), incubation for 30 min at RT, and luminescence detection using the EnVision plate reader (PerkinElmer). […] The IC50 values reported in Table 2 were determined using four parameter non-linear regression curve fit.

[3] = target: human recombinant Aurora A (Homo sapiens (Human), UniProt O14965); assay: Aurora A Kinase Biochemical Assay (ADP-Glo); conditions: ratio of Aurora A IC50 to PLK4 IC50 (selectivity)
Description: Activity of human recombinant Aurora A (ThermoFisher, cat #PR5935A) was measured by quantification of adenosine diphosphate (ADP) using the ADP-Glo Kinase Assay Kit (Promega, cat #V9102). […] 5 µL of 5.0 nM Aurora A in assay buffer (50 mM HEPES, pH 7.5, 0.01% Brij-35, 0.01% BSA, 10 mM MgCl2, 1 mM EGTA, 1 mM DTT) was added to the plates. Test compounds and Aurora A were incubated for 15 minutes at room temperature (RT). […] Reactions were stopped and the remaining ATP depleted by adding 10uL of ADP-Glo reagent (Promega, cat#V912B) and incubating for 40 minutes at RT. The simultaneous conversion of the remaining ADP to ATP and measurement of the newly synthesized ATP was achieved by addition of 20 µL Kinase Detection reagent (Promega, cat #V914B), incubation for 30 min at RT, and luminescence detection using the EnVision plate reader (PerkinElmer). […] The IC50 values reported in Table 2 were determined using four parameter non-linear regression curve fit.

human recombinant Aurora B, sequence (Q96GD4 whole entry): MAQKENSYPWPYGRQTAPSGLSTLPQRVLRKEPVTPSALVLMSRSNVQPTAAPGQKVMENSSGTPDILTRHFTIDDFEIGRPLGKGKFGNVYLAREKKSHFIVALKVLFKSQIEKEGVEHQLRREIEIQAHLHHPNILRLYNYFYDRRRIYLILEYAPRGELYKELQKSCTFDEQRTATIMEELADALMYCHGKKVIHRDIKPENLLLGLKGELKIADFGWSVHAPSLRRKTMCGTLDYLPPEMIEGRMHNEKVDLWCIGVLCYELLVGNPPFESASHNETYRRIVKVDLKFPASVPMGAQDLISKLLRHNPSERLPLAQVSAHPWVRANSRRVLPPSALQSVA
human recombinant PLK4, sequence (O00444 whole entry): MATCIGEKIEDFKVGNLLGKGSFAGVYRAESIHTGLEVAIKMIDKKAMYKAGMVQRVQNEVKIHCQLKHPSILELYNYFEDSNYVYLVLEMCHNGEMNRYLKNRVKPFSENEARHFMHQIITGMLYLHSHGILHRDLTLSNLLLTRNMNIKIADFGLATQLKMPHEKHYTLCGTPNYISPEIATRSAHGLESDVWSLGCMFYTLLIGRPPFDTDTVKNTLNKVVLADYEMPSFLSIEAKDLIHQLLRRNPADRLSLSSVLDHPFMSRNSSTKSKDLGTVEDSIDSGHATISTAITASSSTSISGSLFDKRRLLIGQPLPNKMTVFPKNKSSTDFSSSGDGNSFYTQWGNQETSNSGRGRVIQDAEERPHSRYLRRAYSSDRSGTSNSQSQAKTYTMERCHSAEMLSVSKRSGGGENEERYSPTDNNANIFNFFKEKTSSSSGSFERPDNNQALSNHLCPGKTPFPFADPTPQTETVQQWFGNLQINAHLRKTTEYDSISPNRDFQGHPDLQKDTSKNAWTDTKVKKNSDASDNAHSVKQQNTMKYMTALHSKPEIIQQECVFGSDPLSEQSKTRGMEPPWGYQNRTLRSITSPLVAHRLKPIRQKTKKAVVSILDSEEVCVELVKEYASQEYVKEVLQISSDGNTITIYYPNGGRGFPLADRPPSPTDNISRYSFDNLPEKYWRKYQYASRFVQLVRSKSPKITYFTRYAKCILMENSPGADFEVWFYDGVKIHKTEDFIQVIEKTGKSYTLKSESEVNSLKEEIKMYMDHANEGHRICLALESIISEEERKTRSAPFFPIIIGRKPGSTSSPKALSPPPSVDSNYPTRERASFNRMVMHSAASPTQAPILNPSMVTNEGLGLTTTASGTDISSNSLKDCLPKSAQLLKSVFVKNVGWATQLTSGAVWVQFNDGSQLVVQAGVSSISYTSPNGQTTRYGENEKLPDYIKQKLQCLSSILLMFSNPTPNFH
human recombinant Aurora A, sequence (O14965 whole entry): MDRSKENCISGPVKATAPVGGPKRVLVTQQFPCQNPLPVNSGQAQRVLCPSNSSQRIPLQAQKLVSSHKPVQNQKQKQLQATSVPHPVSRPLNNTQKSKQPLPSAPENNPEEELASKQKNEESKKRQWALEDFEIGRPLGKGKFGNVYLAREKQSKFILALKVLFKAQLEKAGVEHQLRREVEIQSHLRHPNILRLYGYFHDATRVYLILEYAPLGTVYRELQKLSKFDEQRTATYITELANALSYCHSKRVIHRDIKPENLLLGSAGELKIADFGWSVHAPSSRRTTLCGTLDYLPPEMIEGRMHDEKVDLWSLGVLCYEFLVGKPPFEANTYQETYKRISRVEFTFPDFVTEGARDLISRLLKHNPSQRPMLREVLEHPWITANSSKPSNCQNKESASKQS

| Structure (SMILES) | [Aurora B IC50 (nM)]/[PLK4 IC50 (nM)] [1] | IC50 [2] | [Aurora A IC50 (nM)]/[PLK4 IC50 (nM)] [3] |
| --- | --- | --- | --- |
| COc1ccc2c(c1)[C@]1(C[C@H]1c1ccc3c(Nc4ncc(P(C)(C)=O)nc4OC)n[nH]c3c1)C(=O)N2 [Example 229, (1R,2S)-2-(3-{[5-(dimethylphosphoryl)-3-methoxypyrazin-2-yl]amino}-1H-indazol-6-yl)-5′-methoxyspiro[cyclopropane-1,3′-indol]-2′(1′H)-one] | 130.8780 | 7.85 nM | 1669.4278 |
| COc1ccc2c(c1)[C@]1(C[C@H]1c1ccc3c(Nc4nc(N5CCOCC5)ncc4Cl)n[nH]c3c1)C(=O)N2 [Example 103, (1R,2S)-2-(3-{[5-chloro-2-(morpholin-4-yl)pyrimidin-4-yl]amino}-1H-indazol-6-yl)-5′-methozyspiro[cyclopropano-1,3′-indol]-2′(1′H)-one] | 977.1102 | 2.8 nM | 416.6667 |
| CCOc1cc(S(C)(=O)=O)ncc1Nc1n[nH]c2cc([C@@H]3C[C@@]34C(=O)Nc3ccc(OC)cc34)ccc12 [Example 279, (1R,2S)-2-{3-[(4-ethogy-6-methanesulfonylpyridin-3-yl)amino]-1H-indazol-6-yl}-5′-methoxy-1′H-spiro[cyclopropane-1,3′-indol]-2′-one] | 2792.6646 | 1.34 nM | 37425.1497 |
| Cc1ncc(OC(F)F)c(Nc2n[nH]c3c(F)c([C@@H]4C[C@@]45C(=O)Nc4ccc(F)cc45)ccc23)n1 [Example 143, (1R,2R)-2-(3-{[5-(difluoromethoxy)-2-methylpyrimidin-4-yl]amino}-7-fluoro-1H-indazol-6-yl)-5′-fluorospiro[cyclopropane-1,3′-indol]-2′(1′H)-one] | 40.607 | 84.7 nM | 14.621 |
| COc1ccc2c(c1)[C@]1(C[C@H]1c1ccc3c(Nc4cc(C(=O)N(C)C)cnc4OC)n[nH]c3c1)C(=O)N2 [Example 181, 6-methoxy-5-({6-[(1R,2S)-5′-methoxy-2′-oxo-1′,2′-dihydrospiro[cyclopropane-1,3′-indol]-2-yl]-1H-indazol-3-yl}amino)-N,N-dimethylpyridine-3-carboxamide] | 3693.2418 | 7.58 nM | 2415.5227 |
| COc1ccc2c(c1)[C@]1(C[C@H]1c1ccc3c(Nc4nc(Cl)c(OC)c(N5CCOCC5)n4)n[nH]c3c1)C(=O)N2 [Example 49, (1R,2S)-2-(3-{[4-chloro-5-methoxy-6-(morpholin-4-yl)pyrimidin-2-yl]amino}-1H-indazol-6-yl)-5′-metboxyspiro[cydopropane-1,3′-indol]-2′(1′H)-one] | 53.19 | 19.1 nM | 253.4031 |
| COc1ccc2c(c1)[C@]1(C[C@H]1c1ccc3c(Nc4cnn5c4OCC5)n[nH]c3c1)C(=O)N2 [Example 30, (1R,2S)-2-{3-[(2,3-dihydropyrazolo[5,1-b][1,3]oxazol-7-yl)amino]-1H-indazol-6-yl}-5′-methoxyspiro[cyclopropane-1,3′-indol]-2′(1′H)-one] | 6.188 | 31.2 nM | 36.2 |
| COc1ccc2c(c1)[C@]1(C[C@H]1c1ccc3c(Nc4ncnc(N5CC(O)C5)c4OC)n[nH]c3c1)C(=O)N2 [Example 43, (1R,2S)-2-(3-{[6-(3-hydroxyazetidin-1-yl)-5-methoxypyrimidin-4-yl]amino}-1H-indazol-6-yl)-5′-methoxyspiro[cyclopropane-1,3′-indol]-2′(1′H)-one] | 21.9 | 14.5 nM | 1347.136 |
| Cc1ncc(OC(F)F)c(Nc2n[nH]c3cc([C@@H]4C[C@@]45C(=O)Nc4ccc(F)cc45)ccc23)n1 [Example 135, (1R,2S)-2-(3-{[5-(difluoromethoxy)-2-methylpyrimidin-4-yl]amino}-1H-indazol-6-yl)-5′-fluorospiro[cyclopropane-1,3′-indol]-2′(1′H)-one] | 62.6112 | 70.8 nM | 28.3312 |
| CCOc1nc(C(=O)N(C)C)cnc1Nc1n[nH]c2cc([C@@H]3C[C@@]34C(=O)Nc3ccc(OC)cc34)ccc12 [Example 237, 6-ethoxy-5-({6-[(1R,2S)-5′-methoxy-2′-oxo-1′,2′-dihydrospiro[cyclopropane-1,3′-indol]-2-yl]-1H-indazol-3-yl}amino)-N,N-dimethylpyrazine-2-carboxamide] | 369 | 2.94 nM | 3385.3211 |
| COc1ccc2c(c1)[C@]1(C[C@H]1c1ccc3c(Nc4cc(N5CCCC5=O)cnc4OC)n[nH]c3c1)C(=O)N2 [Example 220, (1R,2S)-5′-methoxy-2-(3-{[2-methoxy-5-(2-oxopyrrolidin-1-yl)pyridin-3-yl]amino}-1H-indazol-6-yl)spiro[cyclopropane-1,3′-indol]-2′(1′H)-one] | 498.7527 | 6.01 nM | 1042.4081 |
| COc1ccc2c(c1)[C@]1(C[C@H]1c1ccc3c(Nc4ccc(C(=O)NC(CF)CF)nc4OC)n[nH]c3c1)C(=O)N2 [Example 250, N-(1,3-difluoropropan-2-yl)-6-methoxy-5-({6-[(1R,2S)-5′-methoxy-2′-oxo-1′,2′-dihydrospiro[cyclopropane-1,3′-indol]-2-yl]-1H-indazol-3-yl}amino)pyridine-2-carboxamide] | 110.6011 | 6.19 nM | 819.6509 |
| COc1ccc2c(c1)[C@]1(C[C@H]1c1ccc3c(Nc4ncc(S(=O)(=O)C(F)F)cc4OC)n[nH]c3c1)C(=O)N2 [Example 280, (1R,2S)-2-{3-[(5-difluoromethanesulfonyl-3-methoxypyridin-2-yl)amino]-1H-indazol-6-yl}-5′-methoxy-1′H-spiro[cyclopropane-1,3′-indol]-2′-one] | 309.1097 | 1.93 nM | 727.2256 |
| COc1ccc2c(c1)[C@]1(C[C@H]1c1ccc3c(Nc4cc(N5CCS(=O)(=O)CC5)nc(C5CC5)n4)n[nH]c3c1)C(=O)N2 [Example 59, (1R,2S)-2-(3-((2-cyclopropyl-6-(1,1-dioxidothiomorpholino)pyrimidin-4-yl)amino)-1H-indazol-6-yl)-5′-methoxyspiro[cyclopropane-1,3′-indolin]-2′-one] | 39.23 | 8.44 nM | 108.4696 |
| COc1cnc(C)nc1Nc1n[nH]c2cc([C@@H]3C[C@]34C(=O)Nc3cccc(F)c34)ccc12 [Example 130, (1S,2S)-4′-fluoro-2-{3-[(5-methoxy-2-methylpyrimidin-4-yl)amino]-1H-indazol-6-yl}spiro[cyclopropane-1,3′-indol]-2′(1′H)-one] | 60.1890 | 603 nM | 58.4811 |
| COc1ccc2c(c1)[C@]1(C[C@H]1c1ccc3c(Nc4cc(N5CC(OC)C5)ncn4)n[nH]c3c1)C(=O)N2 [Example 35, (1R,2S)-5′-methoxy-2-(3-{[6-(3-methoxyazetidin-1-yl)pyrimidin-4-yl]amino}-1H-indazol-6-yl)spiro[cyclopropane-1,3′-indol]-2′(1′H)-one] | 2.162 | 7.53 nM | 67.3 |
| COc1ccc2c(c1)[C@]1(C[C@H]1c1ccc3c(Nc4nccnc4OC)n[nH]c3c1)C(=O)N2 [Example 13, (1R,2S)-5′-methoxy-2-{3-[(3-methoxypyrazin-2-yl)amino)-1H-indazol-6-yl}spiro[cyclopropane-1,3′-indol]-2′(1′H)-one] | 10.3 | 2.99 nM | 667.5585 |
